Consider 58 molecules from patent publication US11753403B2, “EIF4E inhibitors and uses thereof” (PIC Therapeutics, Inc., priority 2020, dated 2023).

pIC50: −log10 of the molar value.

Human eIF4E (aa 28-217) / biotin labeled 4G2 peptide, sequence (P06730 28-217): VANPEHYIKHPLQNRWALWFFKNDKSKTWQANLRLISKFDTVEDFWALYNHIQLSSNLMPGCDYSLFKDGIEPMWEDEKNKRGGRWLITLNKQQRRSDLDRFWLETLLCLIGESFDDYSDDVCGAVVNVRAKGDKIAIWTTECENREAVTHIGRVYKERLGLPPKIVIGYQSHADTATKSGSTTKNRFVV

This experiment has as its target Human eIF4E (aa 28-217) / biotin labeled 4G2 peptide (Homo sapiens (Human), UniProt P06730). Put plainly: Human eIF4E/4G2 binding assay (TR-FRET). As to conditions: Human eIF4E/4G2 TR-FRET binding assay; head says IC50, legend says EC50. In a few lines: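 Refolded His-tagged human eIF4E (aa 28-217), 82.5 nM working stock, preincubated 4 h at RT with compounds (10-point 2-fold series) in NaPi pH 6.5 buffer with DTT and gamma globulin. Biotin-4G2 peptide then added for 20 min, followed by Eu-streptavidin/APC-anti-His for 20 min; TR-FRET 665/615 nm ratio normalized, IC50 fitted.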
One may read the pIC50 as the negative decadic logarithm of the IC50, by convention in mol/L. With `CC(C)Cc1sc(-c2ccc(C(=O)O)s2)nc1-c1ccc(Cl)c(Cl)c1` [I-229], the pIC50 is ≥ 6.00.
`CC(C)Cc1sc(N(CCC(=O)O)Cc2cccc(Cl)c2)nc1-c1ccc(Cl)c(Cl)c1` [I-107]: the negative logarithm of the IC50 (pIC50) is ≥ 6.00.
In the case of `CC(C)Cc1sc(N(CCNC(=N)N)Cc2ccccc2)nc1-c1ccc(Cl)c(Cl)c1` [I-232, 2-(2-(benzyl(4-(3,4-dichlorophenyl)-5-isobutylthiazol-2-yl)amino)ethyl)guanidine] it was 5.00 to 6.00.
The figure for `CC(C)Cc1sc(N(CCC(=O)O)CC2CCN(C)CC2)nc1-c1ccc(Cl)c(Cl)c1` [I-88] is < 5.00.
Molecule `CC(C)c1sc(NCC(CCc2ccccc2)C(=O)O)nc1-c1ccc(Cl)cc1` (stereo not shown) [I-43] showed a pIC50 of 5.00 to 6.00.
In the case of `C=Cc1sc(N(CCC(=O)O)Cc2ccccc2)nc1-c1ccc(Cl)c(Cl)c1` [I-129, 3-(benzyl(4-(3,4-dichlorophenyl)-5-vinylthiazol-2-yl)amino)propanoic acid] it was 5.00 to 6.00; in that of `O=C(O)c1sc(C2CCCC2)cc1Nc1nc(CCc2ccccc2)c(-c2ccc(Cl)c(Cl)c2)s1` [I-309], ≥ 6.00; in that of `CC(C)c1sc(NCC(CCc2ccccc2)C(=O)O)nc1-c1ccc(Cl)c(Cl)c1` (stereo not shown) [I-6], ≥ 6.00.
The figure for `CCOC(=O)N1CCN(c2nc(-c3ccc(Cl)c(Cl)c3)c(CC(C)C)s2)CC1C(=O)O` (stereo not shown) [I-245, 4-(4-(3,4-dichlorophenyl)-5-isobutylthiazol-2-yl)-1-(ethoxycarbonyl)piperazine-2-carboxylic acid] is 5.00 to 6.00; for `CC(C)Cc1sc(NCC(NC(=O)OCc2ccccc2)C(=O)O)nc1-c1ccc(Cl)c(Cl)c1` (stereo not shown) [I-138, 2-(benzyloxycarbonylamino)-3-(4-(3,4-dichlorophenyl)-5-isobutylthiazol-2-ylamino) propanoic acid] it is ≥ 6.00.
Turning to `CC(C)Cc1sc(NCc2cccc(O)n2)nc1-c1ccc(Cl)c(Cl)c1` [I-201, 6-((4-(3,4-dichlorophenyl)-5-isobutylthiazol-2-ylamino)methyl)pyridin-2-ol], the pIC50 is < 5.00.
The figure for `COc1ccccc1CC(CNc1nc(-c2ccc(Cl)c(Cl)c2)c(C2CC2)s1)C(=O)O` (stereo not shown) [I-12] is 5.00 to 6.00.
The figure for `CC(C)Cc1sc(N2CCN(C(=O)OCc3ccccc3)C(C(=O)O)C2)nc1-c1ccc(Cl)c(Cl)c1` (stereo not shown) [I-244, 1-(benzyloxycarbonyl)-4-(4-(3,4-dichlorophenyl)-5-isobutylthiazol-2-yl)piperazine-2-carboxylic acid] is ≥ 6.00.
In the case of `CC(C)Cc1sc(N(CCC(=O)N2CCNCC2)Cc2ccccc2)nc1-c1ccc(Cl)c(Cl)c1` [I-134] it was 5.00 to 6.00.
Regarding `CC(C)Cc1sc(N(CCC(=O)O)CCC2CC2)nc1-c1ccc(Cl)c(Cl)c1` [I-106], the pIC50 was 5.00 to 6.00.
In the case of `COc1cccc(-c2nc(NCC(Cc3cccc(F)c3)C(=O)O)sc2C(C)C)c1` (stereo not shown) [I-32] it was 5.00 to 6.00; in that of `O=C(O)CCN(Cc1ccccc1)c1nc(-c2ccc(Cl)c(Cl)c2)c(CN2CCC2)s1` [I-130], < 5.00.
As to `COc1ccc(Nc2nc(-c3ccc(Cl)c(Cl)c3)c(CC(C)C)s2)cc1C(=O)O` [I-210], the negative logarithm of the IC50 (pIC50) was ≥ 6.00.
Molecule `COCc1sc(N(CCC(=O)O)Cc2ccccc2)nc1-c1ccc(Cl)c(Cl)c1` [I-120, 3-(benzyl(4-(3,4-dichlorophenyl)-5-(methoxymethyl)thiazol-2-yl)amino)propanoic acid] showed a pIC50 of 5.00 to 6.00.
For `CC(C)Cc1sc(N(CCC(=O)NCC(N)=O)Cc2ccccc2)nc1-c1ccc(Cl)c(Cl)c1` [I-193], the pIC50 was < 5.00.
In the case of `CC(C)Cc1sc(N(CCC(=O)O)Cc2ccc(Cl)cc2)nc1-c1ccc(Cl)c(Cl)c1` [I-109] it was 5.00 to 6.00.
The molecule `COc1cccc(-c2nc(NCC(Cc3ccc4[nH]ccc4c3)C(=O)O)sc2C(C)C)c1` (stereo not shown) [I-37] showed a negative-log IC50 (pIC50) of 5.00 to 6.00.
With `CN(C)Cc1sc(N(CCC(=O)O)Cc2ccccc2)nc1-c1ccc(Cl)c(Cl)c1` [I-89, 3-(benzyl(4-(3,4-dichlorophenyl)-5-((dimethylamino)methyl)thiazol-2-yl)amino)propanoic acid], the pIC50 was < 5.00.
Molecule `CC(C)Cc1sc(N(CCC(=O)O)Cc2ccncc2)nc1-c1ccc(Cl)c(Cl)c1` [I-63] gave a pIC50 of 5.00 to 6.00.
The figure for `CC(C)Cc1sc(NCC(Cc2c[nH]c3ccccc23)C(=O)O)nc1-c1ccc(Cl)c(Cl)c1` (stereo not shown) [I-26] is 5.00 to 6.00; for `COc1ccccc1CC(CNc1nc(-c2ccc(Cl)c(Cl)c2)c(C(C)C)s1)C(=O)O` (stereo not shown) [I-3] it is ≥ 6.00.
The figure for `CC(C)Cc1sc(N2CCN(C(=O)c3ncccn3)C(C(=O)O)C2)nc1-c1ccc(Cl)c(Cl)c1` (stereo not shown) [I-249] is 5.00 to 6.00; for `CC(C)Cc1sc(N(CCC(N)=O)Cc2ccccc2)nc1-c1ccc(Cl)c(Cl)c1` [I-189] it is < 5.00; for `COc1cccc(-c2nc(NCC(Cc3cccc(O)c3)C(=O)O)sc2C(C)C)c1` (stereo not shown) [I-31] it is < 5.00.
In the case of `CC(C)Cc1sc(N(CCC(N)=O)CCC(=O)O)nc1-c1ccc(Cl)c(Cl)c1` [I-61] it was < 5.00.
In the case of `CC(C)Cc1sc(N2CCN(C(=O)Nc3ccccc3)C(C(=O)O)C2)nc1-c1ccc(Cl)c(Cl)c1` (stereo not shown) [I-252], the negative-log IC50 (pIC50) is ≥ 6.00.
The figure for `CC(C)Cc1sc(Nc2ccc(Cl)c(C(=O)O)c2)nc1-c1ccc(Cl)c(Cl)c1` [I-208] is ≥ 6.00; for `CC(C)Cc1sc(NCC(Cc2ccc(C(N)=O)cc2)C(=O)O)nc1-c1ccc(Cl)c(Cl)c1` (stereo not shown) [I-166, 2-(4-carbamoylbenzyl)-3-(4-(3,4-dichlorophenyl)-5-isobutylthiazol-2-ylamino)propanoic acid] it is 5.00 to 6.00.
In the case of `O=C(O)C(CNc1nc(-c2ccc(Cl)c(Cl)c2)c(CC2CC2)s1)Cc1ccccc1` (stereo not shown) [I-179] it was 5.00 to 6.00.
In the case of `CC(C)Cc1sc(Nc2ncc(-c3ccc4ccccc4c3)cc2C(=O)O)nc1-c1ccc(Cl)c(Cl)c1` [I-322, 2-(4-(3,4-dichlorophenyl)-5-isobutylthiazol-2-ylamino)-5-(naphthalen-2-yl)nicotinic acid] it was ≥ 6.00.
For `CC(C)Cc1sc(Nc2cc(-c3cccnc3)sc2C(=O)O)nc1-c1ccc(Cl)c(Cl)c1` [I-273], the pIC50 is ≥ 6.00.
In the case of `CSCc1sc(N(CCC(=O)O)Cc2ccccc2)nc1-c1ccc(Cl)c(Cl)c1` [I-121] it was 5.00 to 6.00; in that of `COc1ccc(-c2nc(Nc3ncc(C(F)(F)F)cc3C(=O)O)sc2CC(C)C)cc1Cl` [I-325], ≥ 6.00.
The molecule `CC(C)Cc1sc(NCC(NC(=O)OC(C)(C)C)C(=O)O)nc1-c1ccc(Cl)c(Cl)c1` (stereo not shown) [I-137, 2-(tert-butoxycarbonylamino)-3-(4-(3,4-dichlorophenyl)-5-isobutylthiazol-2-ylamino) propanoic acid] had a pIC50 of 5.00 to 6.00.
`CC(C)Cc1sc(N(CCC(=O)O)Cc2ccccc2O)nc1-c1ccc(Cl)c(Cl)c1` [I-50] showed a negative logarithm of the IC50 (pIC50) of 5.00 to 6.00.
The figure for `CC(C)Cc1sc(NCC(Cc2cccc(S(C)(=O)=O)c2)C(=O)O)nc1-c1ccc(Cl)c(Cl)c1` (stereo not shown) [I-172] is 5.00 to 6.00.
`CC(C)Cc1sc(N(CC(=N)N)Cc2ccccc2)nc1-c1ccc(Cl)c(Cl)c1` [I-231, 2-(benzyl(4-(3,4-dichlorophenyl)-5-isobutylthiazol-2-yl)amino)acetimidamide]: the pIC50 was < 5.00.
In the case of `CC(C)c1sc(Nc2ncc(Cc3ccccc3)cc2C(=O)O)nc1-c1ccc(Cl)c(Cl)c1` [I-264] it was ≥ 6.00; in that of `COCCOc1ccc(-c2nc(Nc3ncc(-c4cccs4)cc3C(=O)O)sc2CC(C)C)cc1Cl` [I-327], ≥ 6.00.
In the case of `CC(C)Cc1sc(N(CCC(=O)O)Cc2ccccc2)nc1-c1ccc(-c2ccc(F)cc2)cc1` [I-101, 3-(benzyl(4-(4′-fluorobiphenyl-4-yl)-5-isobutylthiazol-2-yl)amino)propanoic acid] it was ≥ 6.00; in that of `CC(C)c1sc(N(CCC(=O)O)Cc2ccccc2)nc1-c1ccc(F)c(Cl)c1` [I-78], 5.00 to 6.00.
The figure for `CC(C)c1sc(NCC(Cc2ccccc2)C(=O)O)nc1-c1ccc(Cl)c(Cl)c1` (stereo not shown) [I-1, 2-benzyl-3-(4-(3,4-dichlorophenyl)-5-isopropylthiazol-2-ylamino)propanoic acid] is ≥ 6.00; for `CC(C)Cc1sc(Nc2ccccc2C(=O)O)nc1-c1ccc(Cl)c(Cl)c1` [I-141, 2-(4-(3,4-dichlorophenyl)-5-isobutylthiazol-2-ylamino)benzoic acid] it is 5.00 to 6.00.
With `CC(C)Cc1sc(N(CCC(=O)O)Cc2ccc3[nH]ccc3c2)nc1-c1ccc(Cl)c(Cl)c1` [I-55], the negative-log IC50 (pIC50) is ≥ 6.00.
For `CC(=O)NC(CNc1nc(-c2ccc(Cl)c(Cl)c2)c(CC(C)C)s1)C(=O)O` (stereo not shown) [I-140], the negative-log IC50 (pIC50) is < 5.00.
For the molecule `CC(C)Cc1sc(N(CCC(=O)O)CC2CC2)nc1-c1ccc(Cl)c(Cl)c1` [I-105], the negative-log IC50 (pIC50) is 5.00 to 6.00.
`COc1ccc(-c2nc(N(CCC(=O)O)Cc3ccccc3)sc2CC(C)C)cc1Cl` [I-80] had a negative-log IC50 (pIC50) of 5.00 to 6.00.
As to `CC(C)c1sc(Nc2ncc(-c3ccccc3)cc2C(=O)O)nc1-c1ccc(Cl)c(C(F)(F)F)c1` [I-262, 2-(4-(4-chloro-3-(trifluoromethyl)phenyl)-5-isopropylthiazol-2-ylamino)-5-phenylnicotinic acid], the negative logarithm of the IC50 (pIC50) is ≥ 6.00.
In the case of `Cn1nnnc1-c1sc(Nc2ncccc2C(=O)O)nc1-c1ccc(Cl)c(Cl)c1` [I-257, 2-(4-(3,4-dichlorophenyl)-5-(1-methyl-1H-tetrazol-5-yl)thiazol-2-ylamino)nicotinic acid] it was ≥ 6.00; in that of `CC(C)Cc1sc(Nc2nnccc2C(=O)O)nc1-c1ccc(Cl)c(Cl)c1` [I-239], 5.00 to 6.00.
In turn, `CC(C)Cc1sc(N(CCC(=O)O)CC(N)=O)nc1-c1ccc(Cl)c(Cl)c1` [I-64] gave a pIC50 of 5.00 to 6.00.
Take `COc1ccc(-c2nc(Nc3ncc(C(F)(F)F)cc3C(=O)O)sc2C(C)C)cc1Cl` [I-326]: the negative-log IC50 (pIC50) is ≥ 6.00.
`Cc1ncccc1CC(CNc1nc(-c2ccc(Cl)c(Cl)c2)c(CC(C)C)s1)C(=O)O` (stereo not shown) [I-156] had a negative logarithm of the IC50 (pIC50) of 5.00 to 6.00.
